The source of these data is paper PMC7277860, “Viridistratins A−C, Antimicrobial and Cytotoxic Benzo[j]fluoranthenes from Stromata of Annulohypoxylon viridistratum (Hypoxylaceae, Ascomycota)” (Biomolecules, 2020).

What all share (assay): Cytotoxicity assay (MTT)
What all share (type): cell-based

In data set [1] the test system is A549 (human lung carcinoma). The conditions noted are these: Homo sapiens, 120 h, A549, 5 days, value in µg/mL, read-out: half-maximum inhibitory concentration (IC50). The method, then:
(§1) Compounds 1−5 were dissolved as described in the previous section. The cytotoxicity assay was initially performed against the cell lines L929 (mouse fibroblasts), as well as KB 3.1 (human papillomavirus-related endocervical adenocarcinoma), as described previously. A detailed protocol, as well as sources of the cell lines, is given in the Supporting Information.
(§2) After incubating the cell lines with a serial dilution of the test compounds (final range: 37 to 0.6 × 10^−3 µg/mL) for five days, the cells were dyed using 3-(4,5-dimethyl-2-thiazolyl)-2,5-diphenyl-2H-tetrazolium bromide (MTT), which is only converted to its purple formazan derivative by living cells. Then, the intensity of the purple derivative in relation to cells without additive (set to 100% viability) for each concentration of a test compound was quantified. For this, the absorption at 595 nm was measured using a microplate reader to calculate the percentage of cell viability. From this, the half-maximum inhibitory concentration (IC50, in µM) was calculated.
(§3) If an inhibition of cell viability with an IC50 < 50 µM was observed, further cell lines were subjected to the test compounds: PC-3 (human prostate adenocarcinoma), SK-OV-3 (human ovary adenocarcinoma), MCF-7 (human breast adenocarcinoma), A431 (human squamous carcinoma) and A549 (human lung carcinoma).
(§4) Protocol: Cytotoxicity Assay
(§5) The ass ay w as co nducted i n 9 6-well flat-bottom mi crotiter plates using the parameters summarised i n Tabl e S 2 and as described in [S2].
(§6) Cell lines L929 and KB 3.1 were incubated at 37 °C under 10 % CO2 in Gibco™ DMEM medium (Thermo Fisher Scientific, Waltham, MA, USA) supplemented with 10 % FBS. A microtiter plate was filled with 120 µL of this suspension (50,000/mL) in each well.
(§7) Seperately, another microtiter plate was filled with 100 µL of growth medium in each well. Then, 50 µL of the test compound sol utions (1 mg/mL) were given to wells of the first column in two replicates (one compound per row). C ell s wi thout addi ti ves, Me O H, and MeOH: DMSO 9+1 were used as negative controls. Starting from the first column, 50 µL of the solutions were gradually transferred to the ne xt col umn, the conte nts thoroughl y mi xed, and 50 µ L transferred to the following column. This created a serial dilution of the test compounds r anging from 333 µg/mL to 1.9 ×10−3 µg/mL. The remai ni ng 50 µL after column twelve were discarded. From this microtiter plate, 60 µL of the sol utions from 111 µg/ mL to 1.9×10−3 µg/mL were given to the first plate containing 120 µL of the cel l suspens i ons (i.e. the hi ghest concentrati on 333 µg/mL was not used). T his resulted i n fi nal compound concent rati ons rangi ng from […]
(§8) After 5 days of incubation under the aforeme ntioned i ncubati on condi ti ons, the half maximum inhibitory concentrati ons (IC 50) were determined using a colorimetric tetrazolium dye MTT assay [S3].
(§9) For this, 20 µL of a 5 mg/mL solution of 3-( 4 ,5 -dimethyl-2-thi azo l yl)-2 ,5 -di phenyl -2H-tetrazolium bromide (MTT) w ere added to each well and incubated for two hours at 37 °C. Then, the microtiter plate was centrifuged (3,000 r p m, 5 mi n) and the supernat ant remo ved by ho l di ng the pl ate upsi de-do wn and gentle shaking. Afterwards, the wells were washed using 100 µL of phosph ate buffered saline (PBS).
(§10) The plate was again centrifuged and the supernatant removed as described before. Then, 100 µL of an isopropanol:HCl solution (1L i sopropanol+4 mL HCl 37 % w/v) were added to the wells. After i ncubati ng fo r 10 mi n at ambi ent te mperature, the a bso r pti o n of the well s at 595 nm was measured wi th an I nfi ni te ® 200 Pro microplate reader (TECAN, Männedorf, Schweiz).
(§11) The absorption values of the cells without additives were averaged and set to 100 % cell viability.
(§12) Then, t he me ans of absorption of the two compound replicates were set in relation to the blank media.
(§13) These percentage values were plotted a gainst the concentration range (37 µg/mL to 0.6×10 −3 µg/mL). […]

The test system of data set [2] is A431 (human squamous carcinoma). The conditions noted are these: Homo sapiens, A-431, 120 h, A431, 5 days, value in µg/mL, read-out: half-maximum inhibitory concentration (IC50). The method, then:
as §1, §2, §3, §4, §5, §6, §7, §8, §9, §10, §11, §12, §13

Data set [3] deals with KB 3.1 (human endocervical adenocarcinoma). To be noted: 5 days. The method, then: as §1, §2, §4, §5, §6, §7, §8, §9, §10, §11, §12
These percentage values were plotted a gainst the concentration range (37 µg/mL to 0.6×10 −3 µg/mL).
The IC50 val ue w as read from the plot ( i n µg/mL) and the uni ts conversed to µM.
If effects were observed wi th cell lines L929 and KB 3.1 (IC50 < 50 µM), the other cell lines were tested using the same protocol.
Table S2: Cytotoxicity assay experiment parameters cell line type No. growth medium […]

Structures are written as SMILES. In brackets after ≈: the same amount, converted by molar mass.

As for `COc1cccc2c3c(ccc12)-c1ccc(O)c2c(O)ccc-3c12` [Compound 2, viridistratin B], the figures for the IC50 in data set [1] and in data set [2] were 0.45 µg/mL (≈ 1.43 µM) and 0.34 µg/mL (≈ 1.08 µM), respectively. In turn, `COc1cccc2c3c(ccc12)-c1ccc(O)c2c(OC)ccc-3c12` [Compound 3, viridistratin C] registered an IC50 in data set [3] of 85.4 µM.
